Test system: rabbit skeletal myofibrils (approximately 90% fast fibers)
Experiment: Activation of fast skeletal myofibrils (PUMA coupled-enzyme ATPase assay at pCa25)
Format: biochemical
Conditions: concentration at which the compound increased the enzymatic activity by 40%; calcium at pCa25; PM12 buffer pH 6.8
How it was run: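 In pH 6.8 PM12 buffer (12 mM Pipes, 2 mM MgCl2, 1 mM DTT), ADP from myosin regenerated via pyruvate kinase/lactate dehydrogenase, with absorbance change at 340 nm from NADH oxidation as read-out. Calcium set at pCa25; Triton-washed rabbit skeletal myofibrils (about 90% fast fibres) used.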

Mean AC1.4 | SMILES
D (D=>20 uM) | CN(C(=O)c1ccnc(NCC2(c3ncccc3F)CCC2)n1)c1ccccc1 [[2-({[(3-fluoro(2-pyridyl))cyclobutyl]methyl}amino)pyrimidin-4-yl]-N-methyl-N-benzamide]
D (D=>20 uM) | CC(C)[C@@H](Nc1ncc(-c2ncc(C#N)s2)cn1)c1ncccc1Cl [2-(2-{[(1R)-1-(3-chloro(2-pyridyl))-2-methylpropyl]amino}pyrimidin-5-yl)-1,3-thiazole-5-carbonitrile]
D (D=>20 uM) | CC(C)(Nc1ncc(-c2nc(C(=O)O)co2)cn1)c1ncccc1Cl [2-(2-{[1-(3-chloro(2-pyridyl))-isopropyl}amino}pyrimidin-5-yl)-1,3-oxazole-4-carboxylic acid]
B (B=1-10 uM) | CC(C)(Nc1ncc(-c2cc(C(N)=O)ccc2F)cn1)c1cccnc1Cl [3-(2-{[1-(2-chloro(3-pyridyl))-isopropyl]amino}pyrimidin-5-yl)-4-fluorobenzamide]
C (C=10-20 uM) | Nc1ccnn1C(=O)c1cnc(NCC2(c3ncccc3F)CCC2)nc1 [5-aminopyrazolyl 2-({[(3-fluoro(2-pyridyl))cyclobutyl]methyl}amino) pyrimidin-5-yl ketone]
A (A=<1 uM) | CNC(=O)c1ccc(F)c(-c2cnc(NC[C@]3(c4ncccc4F)C[C@H](F)C3)nc2)c1 [{4-fluoro-3-[2-({[3-fluoro-1-(3-fluoro(2-pyridyl))cyclobutyl]methyl}amino)pyrimidin-5-yl]phenyl}-N-methylcarboxamide]
D (D=>20 uM) | CC(C)(Nc1ncc(-c2ncc(CNC(=O)[C@H]3CCCN3)s2)cn1)c1ncccc1F [((2R)pyrrolidin1-2-yl)-N-{[2-(2-{[1-(3-fluoro(2-pyridyl))-isopropyl]amino}pyrimidin-5-yl)(1,3-thiazol-5-yl)]methyl}carboxamide]
A (A=<1 uM) | CSc1ccccc1C(C)(C)Nc1ncc(-c2cccc(C(N)=O)c2)cn1 [3-(2-{[1-methyl-1-(2-methylthiophenyl)ethyl]amino}pyrimidin-5-yl)benzamide]
A (A=<1 uM) | NC(=O)c1cnc(-c2cnc(NCC3(c4ncccc4F)CCC3)nc2)s1 [2-[2-({[(3-fluoro-2-pyridyl)cyclobutyl]methyl}amino)pyrimidin-5-yl]-1,3-thiazole-5-carboxamide]
B (B=1-10 uM) | CC(C)(Nc1ncc(-c2cnc(C(N)=O)s2)cn1)c1ncccc1Cl [5-(2-{[1-(3-chloro(2-pyridyl))-isopropyl]amino}pyrimidin-5-yl)-1,3-thiazole-2-carboxamide]
B (B=1-10 uM) | NC(=O)c1cc(-c2cnc(NC3(c4ncccc4F)CCC3)nc2)ccn1 [4-(2-{[(3-fluoro-2-pyridyl)cyclobutyl]amino}pyrimidin-5-yl)pyridine-2-carboxamide]

SMILES | Mean AC1.4
CC(C)(C)OC(=O)NCCNC(=O)c1cnc(NCC2(c3ncccc3F)CCC2)nc1 [N-{2-[(tert-butoxy)carbonylamino]ethyl}[2-({[(3-fluoro(2-pyridyl))cyclobutyl]methyl}amino)pyrimidin-5-yl]carboxamide] | D (D=>20 uM)
